The format of data set [1] is in vivo, human. The settings on record: for AUC / Cmax: human, plasma, po, 120 mg/m^2/day, oral erlotinib 120 mg/m^2/day (150 mg).
The conditions of data set [2]: children, 120 mg/m^2/day, range in parentheses; cited from earlier work.
The conditions of data set [3]: child with glioblastoma, cited from earlier work.
The conditions of data set [4]: adults, 150 mg/day; cited from earlier work.
The conditions of data set [5]: adults, 150 mg/day; cited from earlier work. This is another data set of the same source.
The conditions of data set [6]: cited from earlier work.
For data set [7] the following is noted: cited from earlier work. This is another data set of the same source.
For data set [8] the following is noted: cited from earlier work. This is another data set of the same source.
The conditions of data set [9]: oral azithromycin, 12 CF patients; cited from earlier work.
For data set [10] the following is noted: orally administered ganciclovir; cited from earlier work.
[11] abbreviates: cystic fibrosis patient, oral erlotinib 150 mg daily.
The mark [12] stands for this setting: adult patients with advanced malignant disease.

Read-outs that look alike come from different tables or passages of the source.

These results are taken from paper PMC2704987 (Pharmacotherapy, 2009).

By AUC is commonly meant the area under the concentration-time curve, a measure of exposure. Lower therefore signals less exposure. The term Cmax denotes the highest concentration seen after dosing. Broadly, the half-life is the time in which the quantity being followed falls by half.

With `C#Cc1cccc(Nc2ncnc3cc(OCCOC)c(OCCOC)cc23)c1` [erlotinib], the “ka (absorption rate constant)” value in data set [1] (cystic fibrosis patient, oral erlotinib 120 mg/m^2/day) was determined as 1.51 h^−. Besides, the “VdERL (apparent volume of distribution of erlotinib)” value in data set [1] (cystic fibrosis patient, oral erlotinib 120 mg/m^2/day, with pancrelipase) is on record as 60.4 L/m^2. Besides, in data set [1] (setting [11]), the “Apparent clearance of erlotinib” value was 4.9 L/h/m^2, the “Apparent volume of distribution of erlotinib” value came out at 60.4 L and the “rate of erlotinib absorption (ka)” value was determined as 1.51 h⁻¹. For the same molecule, the “absorption of orally administered erlotinib in a cystic fibrosis patient” value in data set [1] (given concomitantly with pancreatic enzymes replacement therapy) is reported as “not affected”. For the same molecule, in data set [1] (Day 1 AUCERL, cystic fibrosis patient, day 1, plasma), the AUC turned out to be 18800 ng·h/mL. In addition, the concentration in data set [1] (Day 1 Cmax, cystic fibrosis patient, day 1, plasma) peaked (Cmax) at 1440 ng/mL. The AUC in [1] (Day 8 AUCERL, cystic fibrosis patient, day 8 (steady state)) stood at 25700 ng·h/mL. In data set [1] (Day 8 Cmax, cystic fibrosis patient, day 8, plasma), this molecule registered a Cmax of 1460 ng/mL. Besides, in data set [2], the “Day 1 AUCERL” value is recorded as 22.6 (18.2–27) mcg*h/mL, the “Day 1 Cmax” value is listed as 1260 (490–2020) ng/mL and the “Day 8 AUCERL” value is listed as 29.5 (12–47) mcg*h/mL. Also, in data set [3] (70 mg/m^2/day), the “Day 1 AUCERL” value was 19400 ng·h/mL, the “Day 8 AUCERL” value is 32600 ng·h/mL and the ka is 0.59 h^−. Also, the “penetration of erlotinib into the CSF” value in data set [3] (oral erlotinib) was “modest”. The “Day 1 AUCERL” value in data set [4] is 16540 ± 11020 ng·h/mL. For the same molecule, in [5], the “Day 1 AUCERL” value is 19400 ± 10000 ng·h/mL. Further, in data set [6] (setting [12]), the half-life was 10 to 36 h and the “time to maximum concentration (Cmax) after dose administration” value was 2 to 4 h. Moreover, in data set [6] (adults, administration with food), the “bioavailability after oral administration with food” value is listed as no less than 100%. The elimination in feces in [6] (adults, biliary excretion) was 63%. Also, in data set [6] (adults, without food), the “bioavailability after oral administration” value is “approximately 60%”. The elimination in urine in data set [6] (adults) was 13%. In data set [7], the “bound to plasma proteins” value was 95%. Besides, the “solubility in water and methanol” value in data set [8] was “poor”.

In the case of `CC[C@H]1OC(=O)[C@H](C)[C@@H](O[C@H]2C[C@@](C)(OC)[C@@H](O)[C@H](C)O2)[C@H](C)[C@@H](O[C@@H]2O[C@H](C)C[C@H](N(C)C)[C@H]2O)[C@](C)(O)C[C@@H](C)CN(C)[C@H](C)[C@@H](O)[C@]1(C)O` [azithromycin], in data set [9], the “Cmax, Tmax, and AUC values, CF patients versus healthy volunteers” value is recorded as “similar”; the “absorption rate constant (ka) and absolute bioavailability (F), CF patients versus healthy volunteers” value was “no statistically significant difference”.

On to `Nc1nc(O)c2ncn(COC(CO)CO)c2n1` [ganciclovir], for which, in data set [10], the “pharmacokinetic parameters in post-lung transplant patients with CF” value was “predictable”.
